For assay [1], the target named is T1, h-EP4 (Homo sapiens, UniProt P35408). The experiment in a line: EP4 receptor binding assay (3H-PGE2 SPA). To be noted: EP4 receptor membranes, 20 nM 3H-PGE2, pH 6.0, 2 hrs room temperature. As to the method:
Compounds of the invention were tested in an EP4 receptor binding assay of the following protocol.
(§1) A mixture containing 20 μg of EP4 receptor membranes, 0.5 mg of wheat germ agglutinin coated PVT-SPA beads, with or without compounds of the invention (25 μl per well) or 10 μM of cold PGE2 at 1% DMSO and 20 nM ^3H-PGE2 in assay buffer containing 25 mM MES, 10 mM MgCl2, 1 mM EDTA, pH 6.0 are incubated in Corning 3600 plates on a plate shaker for 2 hrs at room temperature. ^3H-PGE2 binding is evaluated by counting the plates on the top count using the ^3H SPA dpm2 program. The percentage of binding and Ki value for inhibitors are calculated based on the one site competition parameter using the Graphpad® prism program.

The target of assay [2] is T1, h-EP4. The assay can be described thus: EP4 total cAMP assay in HEK293-EBNA cells transfected with hEP4. To be noted: 1 hour 37° C. The class given is cell-based. As to the method:
(§2) Compounds of the invention are tested in a total cAMP assay as follows. HEK293-EBNA cells transfected with pCFP4-hEP4 receptors are seeded in 96 well opaque plate (Costar #3917) at 4×10^4 cells per well in 100 μl of culture medium (D-MEM/F12 supplemented with 10% FBS, […] L-glutamine, and 250 μg/ml of hygromycin; all from Gibco BRL) and incubated at 37° C. After overnight incubation, the medium is removed from each well and replaced with 45 μl of assay medium consisted of phenol red free D-MEM/F-12, 0.1% BSA (Gibco BRL) and 0.1 mM 3-isobutyl-1-methyl-xanthine (Sigma). After 15 minutes of incubation at 37° C., 16-16-dimethyl PGE-2 or compounds at desired concentrations in 20 μl of assay medium are added to cells and further incubated at 37° C. for 1 hour. Total cAMP (intra- and extra-cellular) is measured by using a cAMP-screen ELISA System (Tropix, #CS1000).
On the technique in general: Changes in cAMP serve as a functional read-out for many G protein-coupled receptors.

Assay [3] addresses T2, h-EP2 (Homo sapiens, UniProt P43116). The assay can be described thus: Prostaglandin EP2 receptor binding assay (3H-PGE2 SPA). To be noted: EP2 receptor membranes, 20 nM 3H-PGE2, pH 6.0, 2 hrs room temperature. As to the method: Compounds of the invention were tested in an EP2 receptor binding assay of the following protocol. As referred to herein, the term an “EP2 receptor binding assay” designates the following protocol.
as §1, with “EP2” for “EP4”, “compound” for “compounds”

The subject of assay [4] is hepatitis B viral replication. The following applies: oral administration, chronic hepatitis B patients; cited from earlier work.
The target in assay [5] is T2, h-EP2. The assay can be described thus: EP2 total cAMP assay in HEK293-EBNA cells transfected with pCEP4-hEP2. Format: cell-based. To be noted: 1 hour 37° C. As to the method:
Therefore, the compounds of the invention are tested for their ability in modulating cAMP levels in cells over-expressing EP2 or EP4 (Example 25 below) receptors.
as §2, with “pCEP4-hEP2” for “pCFP4-hEP4”

T1 sequence (P35408 whole entry): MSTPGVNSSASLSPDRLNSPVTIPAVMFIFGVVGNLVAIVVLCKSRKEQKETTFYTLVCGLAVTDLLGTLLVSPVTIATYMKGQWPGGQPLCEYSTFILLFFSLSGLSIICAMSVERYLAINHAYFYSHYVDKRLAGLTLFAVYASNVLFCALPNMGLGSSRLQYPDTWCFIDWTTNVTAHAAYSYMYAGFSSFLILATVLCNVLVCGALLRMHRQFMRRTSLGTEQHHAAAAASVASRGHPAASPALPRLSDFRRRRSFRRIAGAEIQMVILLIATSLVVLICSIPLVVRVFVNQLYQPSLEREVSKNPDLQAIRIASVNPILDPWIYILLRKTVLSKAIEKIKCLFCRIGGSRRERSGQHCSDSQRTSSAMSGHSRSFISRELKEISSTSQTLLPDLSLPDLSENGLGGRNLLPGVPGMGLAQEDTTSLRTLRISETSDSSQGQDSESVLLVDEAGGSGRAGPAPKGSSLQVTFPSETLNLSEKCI
T2 sequence (P43116 whole entry): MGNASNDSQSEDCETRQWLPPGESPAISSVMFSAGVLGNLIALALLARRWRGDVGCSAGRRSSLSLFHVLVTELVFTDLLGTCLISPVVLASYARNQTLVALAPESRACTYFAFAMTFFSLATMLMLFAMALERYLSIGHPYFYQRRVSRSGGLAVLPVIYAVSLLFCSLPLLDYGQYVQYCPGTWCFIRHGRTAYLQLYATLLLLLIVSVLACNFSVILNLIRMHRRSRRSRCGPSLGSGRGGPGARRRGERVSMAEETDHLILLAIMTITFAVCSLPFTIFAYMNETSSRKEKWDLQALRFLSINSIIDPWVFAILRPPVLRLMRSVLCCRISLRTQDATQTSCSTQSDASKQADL

With `CC(=O)N(CCc1ccc(C(=O)O)cc1)NCCC(O)Cc1cccc(I)c1` (stereo not drawn) [Example 10, 4-(2-{1-acetyl-2-[3-hydroxy-4-(3-iodophenyl)butyl]hydrazino}ethyl)benzoic acid], the Ki at h-EP4 [1] was 97 nM.
The same measure, in the same setting: under `CC(=O)N(CCc1ccc(C(=O)O)cc1)NCCC(O)Cc1cccc(-c2ccccc2)c1` (stereo not drawn) [Example 8, 4-(2-{1-acetyl-2-[4-(1,1′-biphenyl-3-yl)-3-hydroxybutyl]hydrazino}ethyl)benzoic acid] stands 115 nM.
Consider `CC(=O)N(CCc1ccc(C(=O)O)cc1)NCCC(O)Cc1cccc(C#Cc2ccccc2)c1` (stereo not drawn) [Example 7, 4-[2-(1-acetyl-2-{3-hydroxy-4-[3-(phenylethynyl)phenyl]butyl}hydrazino)ethyl]benzoic acid], for which, at h-EP4 [2], a half-maximal response (EC50) required 0.15 nM. Also, the figures for the Ki at h-EP4 [1] and on h-EP2 [3] were 45 nM and 4210 nM, respectively.
As to `CC(C)C(=O)N(CCc1ccc(C(=O)O)cc1)NCCC(O)Cc1cccc(C(F)(F)F)c1` (stereo not drawn) [Example 6, 4-[2-(2-{3-hydroxy-4-[3-(trifluoromethyl)phenyl]butyl}-1-isobutyryl hydrazino)ethyl]benzoic acid], the affinity at h-EP4 [1] corresponds to a Ki of 332 nM.
Same read-out and setting: under `CC(=O)N(CCc1ccc(C(=O)O)cc1)NCCC(O)Cc1cccc(Br)c1` (stereo not drawn) [Example 9, 4-(2-{1-acetyl-2-[4-(3-bromophenyl)-3-hydroxybutyl]hydrazino}ethyl) benzoic acid] stands 149 nM.
At h-EP4 [2], `CC(=O)N(CCc1ccc(C(=O)O)cc1)NCCC(O)Cc1cccc(C(F)(F)F)c1` (stereo not drawn) [Example 4, 4-[2-(1-acetyl-2-{3hydroxy-4-[3-(trifluoromethyl)phenyl]butyl}hydrazino)ethyl]benzoic acid] had an EC50 of 0.4 nM. In addition, the Ki at h-EP4 [1] was 530 nM; at h-EP2 [3], 4450 nM.
For the compound `CCCCC[C@H](O)/C=C/[C@H]1[C@H](O)CC(=O)[C@@H]1C/C=C\CCCC(=O)O` [PGE2, Prostaglandin E2], in assay [4], the “patients with sustained loss of viral replication” value is 47%.
Regarding `CCCCCC(O)CCNN(CCc1ccc(C(=O)O)cc1)C(C)=O` (stereo not drawn) [Example 2, 4-{2-[1-acetyl-2-(3-hydroxyoctyl)hydrazino]ethyl}benzoic acid], the values for the Ki at h-EP4 [1] and on h-EP2 [3] were 400 nM and 32900 nM, respectively. The compound also returned an EC50 at h-EP2 [5] of 6030 nM.
Consider `C#Cc1cccc(CC(O)CCNN(CCc2ccc(C(=O)O)cc2)C(C)=O)c1` (stereo not drawn) [Example 16, 4-(2-{1-acetyl-2-[4-(3ethynylphenyl)-3-hydroxybutyl]hydrazino}ethyl) benzoic acid], for which the Ki at h-EP4 [1] was 131 nM.

A word on the Ki: it is a dissociation constant, usually derived from enzyme kinetics or from competition with a known ligand. A lower Ki goes with higher affinity. By EC50 is commonly meant the midpoint of the concentration-response curve. A low value points to a more potent agent.

The values above are taken from patent US7465755B2, “Hydrazide derivatives as prostaglandin receptors modulators” (Laboratoires Serono SA, priority 2003, dated 2008).
